Each structure is given as a SMILES string. Some results are limits rather than exact numbers.

These results are taken from patent US5981517A, “Androstene derivatives” (priority 1997, dated 1999).

For series [1], the system named is forearm of a human volunteer. Kind of series: Human vasoconstriction test. The series is classed as in vivo. Also on record: key: 0 = normal skin, 4 = very intense pallor. The note with it: 10 mM.
A short description of another series: Stability in rat blood. The note with it: rat blood, 0.1 mM, 37° C.; read-out: Half-life (t1/2), Blood. The series is classed as in vitro ADME. How it is done:
(§1) A Whatman C-18 column (4.6 mm×108 mm) was connected to a Spectra-Physics component system consisting of a SP 8810 precision isocratic pump, Rheodyne 7125 injector (20 μL injection volume), SP 8450 UV/VIS variable wavelength detector (230 nm), and SP 4290 integrator. The system was operated at ambient temperature. The mobile phase consisted of acetonitrile, acetic acid and water (60:0.1:40). At a flow rate of 1.0 mL/minute, the retention times for the test compounds were 4.74 minutes for Compound A, 5.84 minutes for Compound B, 6.93 minutes for Compound C, and 5.72 minutes for Compound D.
(§2) HPLC peak area and peak height were used as a measure of the concentration of the test compounds and plotted against time to evaluate the disappearance rates of the compounds. The stability was determined by measuring the pseudo-first order rate constant (kobs in min^-1) or half-life (t1/2 in min) of disappearance of the test compound in buffer. […].
(§3) A 0.2 mL aliquot of stock solution (1 mM) of each of the test compounds A, B, C, and D, was added to 2 mL of each biological media (whole heparinized rat blood, 20% rat liver homogenate, and 6-volume diluted lung homogenate in isotonic buffer of pH 7.40 made by combining 0.05 M of Na2 HPO4 and 0.05 M of NaH2 PO4 with 0.05 M of NaCl), which was kept in a 37° C. water bath, to obtain a final concentration of 0.1 mM in each biological medium. Samples of 0.1 mL were taken at appropriate time intervals for 2 hours (at 0, 3, 5, 10, 20, 40, 60, 90 and 120 minutes) and mixed with 0.2 mL of acetonitrile containing 5% DMSO. Each mixture was centrifuged and the supernatant was injected in the HPLC.

A further series in a line: physchem. The series is classed as physicochemical. As for the experimental part: as §1, §2
The stabilities of test compounds A, B, C, and D, were tested in buffer solutions in the pH range of 4.0 to 9.0. A 0.1 mL portion of each compound at a concentration of 1 mM was mixed with 10 mL phosphate buffer (made by combining 0.05 M of NaH2 PO4 and 0.05 M of Na2 HPO4 with 0.05 M of NaCl) to give a final concentration of 0.01 mM. The mixtures were incubated at 37° C., and samples were taken and injected in the HPLC system at appropriate time intervals. pH profiles of each test compound are shown in TABLE III below. […]

Series [2] in a line: Stability in human plasma. The series is classed as in vitro ADME. The note with it: human plasma, 100 μM, 37° C. How it is done: (§4) A Waters NOVA-PAK phenyl column was connected to a Spectra-Physics component system consisting of a SP 8810 precision isocratic pump, a Rheodyne 7125 injector (injection volume 20 μL), an SP 8450 UV/VIS variable wavelength detector (operated at 254 nm) and a SP 4270 integrator. […]. The retention times of compound of the invention J and its metabolities L and M were 8.64, 2.70 and 2.45 minutes, respectively. The retention times of compound of the invention I and its metabolites N and 0 were 5.84, 2.70 and 1.81 minutes, respectively. The retention time of cortienic acid was 1.00 minute.
(§5) Freshly collected human or rat plasma was used. An aliquot of 10 mM test compound in ethanol solution was added to prewarmed (37° C.) plasma to yield a final concentration of 100 μM. At appropriate time intervals, samples (0.1 mL) were removed and mixed with 0.2 mL of 5% dimethylsulfoxide/acetonitrile solution. Mixtures were centrifuged and supernatants were analyzed by HPLC. The pseudo-first order rate constant of the disappearance of compound in the biological media was determined by linear regression analysis from the plot of log peak area and peak height versus time.
(§6) Stability was evaluated by the pseudo first-order rate constant (k, hr^-1) and half-life (t1/2, hr) of the disappearance of the test compound in the media.

Series [3] in a line: Stability in liver homogenate. The note with it: 20% rat liver homogenate, 0.1 mM, 37° C.; read-out: Half-life (t1/2), Liver. The series is classed as in vitro ADME, rat. How it is done: as §1, §2, §3
A short description of series [4]: Stability in lung homogenate. The series is classed as in vitro ADME. The following applies: rat; 6-volume diluted lung homogenate, 0.1 mM, 37° C.; read-out: Half-life (t1/2), Lung. As for the experimental part:
as §1, §2, §3

A further series in a line: Stability in rat plasma. The note with it: rat plasma, 100 μM, 37° C. The series is classed as in vitro ADME. How it is done:
as §4, §5, §6

As for `CCOC(=O)[C@@]1(OC(=O)C(Cl)Cl)CC[C@H]2[C@@H]3CCC4=CC(=O)C=C[C@]4(C)[C@H]3[C@@H](O)C[C@@]21C` [Compound B, Ethyl 17α-dichloroacetoxy-11β-hydroxyandrosta-1,4-dien-3-one-17β-carboxylate], the Vasoconstriction activity amounted to 3 in series [1] (1 hour after patch removal), 4 in series [1] (8 hours after patch removal), 4 in series [1] (17 hours after patch removal) and 4 in series [1] (24 hours after patch removal). The half-life at 100 µM is 1.29 h in the series “Stability in rat blood”; 5.03 h in series [2] (read-out: t1/2 (converted)); 0.313 h in series [3]; 2.29 h in series [4]; 5.08 h in the series “Stability in rat plasma” (read-out: t1/2 (converted)). Moreover, the half-life is more than 48 h in the series “physchem” (aqueous phosphate buffer, pH 4.5); 16.7 h in the series “physchem” (aqueous phosphate buffer, pH 6.56); 5.08 h in “physchem” (aqueous phosphate buffer, pH 7.4); 0.867 h in the series “physchem” (aqueous phosphate buffer, pH 8.08); 0.144 h in the series “physchem” (aqueous phosphate buffer, pH 9); 5.08 h in the series “physchem” (buffer, pH 7.4). Besides, the “k (pseudo first-order rate constant)” value in series [2] is 0.138 h⁻¹; in “Stability in rat plasma” it was 0.136 h⁻¹.
